Reference: patent publication US20170014372A1, “Drug Combination for Treatment of Proliferative Diseases” (ECOLE POLYTECHNIQUE FEDERALE DE LAUSANNE (EPFL), priority 2014, published 2017)

Key:
[1] = system: 786-0 cells; assay: Cell viability assay on 786-0; type: cell-based, human; conditions: 72 h
Procedure: (§1) Cell viability assay was performed as previously described (31). Cells were seeded in a 96-well culture plate at a density of 2.5-10×10^3 cells/well, depending on cell type (ECRF24 in gelatin-coated plates), 24 h prior to the application drug combinations or control conditions (in a total volume of 50 μl) and were subsequently incubated for an additional 72 h. Cell viability was assessed using the CellTiter-Glo luminescent cell viability assay (Promega, Madison, Wisc., USA).

[2] = system: LS174T tumors; assay: Human colorectal adenocarcinoma (LS174T) grafted intradermally in Swiss nu/nu mice; type: in vivo; conditions: treated daily; for tumor growth inhibition: doses per Table 2
Procedure: Mice were randomized into groups and treated with sham (CTRL), individual drugs, 4+8+9 (M1 and M2), and 4+8 (M3), respectively (Table 2) Individual drugs inhibited tumor growth only by approximately 0% and 6% (4) at 5 and 15 mg/kg, 10% (8) or 23% (9), whereas combinations M1 and M2 by 76±14% and 25±17%, respectively (FIG. 5D). On the last day of the experiment (FIG. 5E) tumors were resected, and paraffin embedded for immunohistochemical staining for endothelial cells (CD31). In M1-treated tumors microvessel density was approximately 80% lower then in sham-treated tumors (CTRL), FIG. 5F.
FIG. 5. Inhibition of A2780 (A-C) or LS174T (D-F) tumor growth in vivo by the best mixtures optimized. (A) Growth curve of A2780 tumors grafted on the CAM showing tumor volume with respect to treatment day. Treatment was administered i.v. on days 1 and 2 and tumors were excised on the 8th (last) day of experiment. Data points represent the average tumor volume as a percentage of the final control volume per experiment. (B) Figures show representative tumors of sham treated (CTRL) and F drug combination. (C) The microvessel density profiles are expressed as the number of vessels per mm^2 and presented as a percentage of a control. (D) LS174T grafted intradermally in Swiss nu/nu mice and treated daily with single compounds or mixtures. Data points represent the average tumor volume as a percentage of the final control volume per experiment and error bars represent the SEM; N=3-9. *p <0.05 and **p<0.01. ‘S’ indicates synergy (Cl≦0.8). (E) The microvessel density profiles are expressed as the number of vessels per mm^2 and presented as a percentage of a control. […] The bar in the upper right image represents 0.5 mm and is valid for both images. Data points represent average values of 2 independent experiments and error bars represent SEM; N=3-7; **p<0.01.

[3] = system: ECRF24 cells; assay: Cell viability (proliferation) assay on endothelial cells ECRF24; type: cell-based, human; conditions: for single-drug dose required for the same EC proliferation inhibition as the best combination (90% inhibition): assuming linear dose-response curves; for theoretical dose reduction in combination: vs single-drug dose for 90% inhibition
Procedure: (§2) Cell viability assay was performed as previously described (31).
The feedback system control (FSC) technique was employed as previously described (13, 33, 34). In the research presented here, the FSC technique is implemented using the differential evolution (DE) algorithm (35) and two separate optimization were performed with the cellular outputs of ECRF cell viability (proliferation) and migration (wound healing) assays. 19 drug combinations were tested per iteration and 11 iterations were performed in each optimization, or until a plateau in the best output value was reached.
Drug mixing was performed as follows: stock solutions were first used to prepare the highest concentration of each compound and lower concentrations were prepared through serial dilutions of the higher concentrations. All drug concentrations were prepared 9 times more concentrated than desired to account for dilution by other compounds (or medium when a compound was not included). The drug mixtures were prepared directly before applying drug combinations to cells by first adding the required amount of medium for each combination (i.e.
all compounds which are included at concentration 0) and then adding the required concentration of each compound, always in the same order. The cells were incubated in 50 μl of each mixture for 72 h in the proliferation assay or for 6 h in the migration assay.
Second order linear regression models were generated using the data obtained from each optimization. Data was modeled using real concentration values and both concentration values and proliferation output data was transformed using the z-score function in Matlab. The negative values of the 2nd-order terms regression coefficients corresponds to synergistic effect, the positive value to the antagonistic effect. Appropriate data and model verification methods were implemented to ensure the accuracy and reliability of predictions made based on these models. The main assumptions of linear regression models were verified (i.e. weak exogeneity, linearity, constant variance, independence of errors, and lack of multicolinearity). As the presence of multicolinearity was indicated in a few of the regressors in the second order linear regression model of the proliferation data (based on the analysis of variance inflation factors (VIF) and condition indices), a stepwise linear regression was also performed to isolate the most important regressors and remove instabilities in the regression analysis due to multicolinearity. Drug interactions were additionally analyzed using the Compusyn software (14), where a ‘combination index’ (CI) is calculated for drug combinations and CI values less than […] indicate synergistic drug combinations, while CI-values greater than 1 indicate antagonistic drug.

[4] = system: A2780 tumors grafted on the CAM; assay: Human ovarian carcinoma (A2780) grafted on the chicken chorioallantoic membrane (CAM); type: in vivo, chicken embryo; conditions: for tumor growth inhibition, single compound at high concentration: high concentration: 29 μg/kg (4) and 615 μg/kg (8); for tumor growth inhibition, single compound at low concentration: low concentration: 2.9 μg/kg (4) and 307 μg/kg (8)
Procedure: Human ovarian carcinoma tumors were implanted on the CAM as previously described (36). Briefly, fertilized chicken eggs were incubated in a hatching incubator (37° C. and relative humidity 65%), as previously described (37). […] Treatment began when vascularized tumors were visible, 3 days after tumor implantation (EDD10). Drug combinations were prepared as done in in vitro assays, were pre-mixed and administered as a 20 μL intravenously injection. […] On the last day of experiment CAM experiments, tumors were resected, fixed overnight in zinc fixative solution as previously described (38). […] Primary antibody incubation was performed overnight (DIA-310; Dianova, Hamburg, Germany).

[5] = system: A2780 cells; assay: Cell viability assay on A2780; type: cell-based, human; conditions: 72 h
Procedure: as §1

[6] = system: panAKT, pMAPK and ribosomal protein S6 (pS6); assay: Western blot of panAKT, pMAPK and pS6 in ECRF24; type: cell-based, human; conditions: 5 hrs incubation
Procedure: Cells were seeded in a 6-well plate (30×10^4 cells per well) 24 h prior to the removal of medium and application of selected drug combinations or DMSO control (total volume of 2 mL). After an additional 5 hrs of incubation at the given conditions, medium was removed, cells were washed with PBS and 100 μl of buffer lysate was added (prepared on ice and composed of RIPA, protease inhibitors (1:1000) and sodium orthovanadate (1:1000)). Wells were then scratched and cell lysate solution was removed and put on ice for 10 min. Cell supernatant was isolated after centrifuging solution at 12,000 min^−1 for 15 min. A solution of blue buffer (4×)+u-Page Reducing Agent (10×) was added to supernatant and samples were kept at 95 ° C. for 5 min.
The samples were then run in an electrophoresis gel for 90 min at 125 V. The monoclonal antibodies included phosphorylated Akt (473), total Akt, phosphorylated MAPK, and phosphorylated S6 (235/236 hamster, Cell Signaling). Cell extracts were prepared by detergent lysis [50 mmol/L Tris-HCl (pH 8.0), 150 mmol/L NaCl, 1% NP40, 0.5% sodium deoxycholate, 0.1% SDS containing protease (Sigma, St. Louis, Mo.) and phosphatase (Sigma) inhibitor cocktails]. The soluble protein concentration was determined by micro-BSA assay (Pierce, Rockford Ill.). Protein immunodetection was done by electrophoretic transfer of SDS-PAGE separated proteins to nitrocellulose, incubation with antibody and chemiluminescent second step detection (PicoWest; Pierce). Protein expression was quantified in Fiji by densitometry as previously described (39, 40). Results were expressed as a relative ratio between samples and control.

[7] = system: HUVEC; assay: Cell viability assay on HUVEC; type: cell-based, human; conditions: 72 h
Procedure: as §2

[8] = system: renal cell carcinoma (Caki-1) cells; conditions: combinations of Table 4
Procedure: as §1

Row | Compound | single-drug dose required for the same EC proliferation inhibition as the best combination (90% inhibition) [3] | theoretical dose reduction in combination [3] [fold] | tumor growth inhibition, single compound at high concentration [4] [%] | tumor growth inhibition, single compound at low concentration [4] | pAkt protein [6] | inhibition of HUVEC viability [7] | tumor growth inhibition [2] [%] | also measured
1 | CNC(=O)c1ccccc1Sc1ccc2c(/C=C/c3ccccn3)n[nH]c2c1 [compound 3, axitinib] |  |  |  |  |  |  |  | inhibition of 786-0 cell viability [1]: approx. 30%
2 | C#Cc1cccc(Nc2ncnc3cc(OCCOC)c(OCCOC)cc23)c1 [compound 4, erlotinib] | approximately 50 μM | 5 | ~20 | approximately 6% | slight decrease | more sensitive |  | tumor growth inhibition at 5 mg/kg ([2]; 5 mg/kg): approximately 0%; tumor growth inhibition at 15 mg/kg ([2]; 15 mg/kg): ~6%; inhibition of A2780 cell viability [5]: approximately 40%
3 | Cc1ccc(C(C)C)cc1.[Cl][Ru]([Cl])[PH]12CN3CN(CN(C3)C1)C2 [compound 8, RAPTA-C] | ~2000 µM | 11 | ~20 | approximately 6% | slight decrease |  | ~10 | 
4 | Cn1c(=O)n(-c2ccc(C(C)(C)C#N)cc2)c2c3cc(-c4cnc5ccccc5c4)ccc3ncc21 [compound 9, BEZ-235] | ~0.12 µM | 6 |  |  |  | more sensitive | ~23 | tumor growth inhibition, single compound at its applied concentration ([4]; limiting compound, dose used in the combinations): approximately 35%; pS6 expression [6]: nearly complete inhibition; pS6 expression ([6]; listed as BEZ235): inhibited
5 | AZD4547 |  |  |  |  |  |  |  | inhibition of Caki-1 cell proliferation / synergy [8]: effective and synergistic inhibition
